Source: patent US20130324522A1, “INSECT ODORANT RECEPTOR ANTAGONISTS” (THE ROCKEFELLER UNIVERSITY, priority 2010, published 2013)

Assays:
Format in all cases: cell-based
[1] = target: T1, Or47a/Or83b (Drosophila melanogaster, UniProt P81921+Q9VNB5); test: Ca2+-imaging of stable Flip-In T-Rex cell line Or47a/Or83b; details: for inhibition at 4 µM: compound applied at 4 μM, read-out: Percent Inhibition OR47a OR83b; for IC50: Table B, read-out: IC50 OR47a
T1 construct: Full-length cDNAs for mosquito (Anopheles gambiae) odorant receptor (OR1, OR2, OR7, OR8, OR28), and fly (Drosophila melanogaster) odorant receptor (Or47a, Or83b); expressed in transfected cells
T1 sequence (P81921 1-385): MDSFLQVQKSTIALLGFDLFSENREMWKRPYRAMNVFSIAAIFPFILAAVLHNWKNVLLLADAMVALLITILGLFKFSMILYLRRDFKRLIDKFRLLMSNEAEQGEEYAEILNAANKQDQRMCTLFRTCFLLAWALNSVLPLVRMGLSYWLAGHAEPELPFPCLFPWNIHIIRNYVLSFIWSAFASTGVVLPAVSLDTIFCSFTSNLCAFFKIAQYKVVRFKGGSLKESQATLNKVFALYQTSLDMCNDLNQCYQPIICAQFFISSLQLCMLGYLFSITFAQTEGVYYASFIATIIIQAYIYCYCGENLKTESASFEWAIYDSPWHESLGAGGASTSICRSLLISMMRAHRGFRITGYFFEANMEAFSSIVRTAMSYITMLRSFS
T1 sequence (Q9VNB5 1-486): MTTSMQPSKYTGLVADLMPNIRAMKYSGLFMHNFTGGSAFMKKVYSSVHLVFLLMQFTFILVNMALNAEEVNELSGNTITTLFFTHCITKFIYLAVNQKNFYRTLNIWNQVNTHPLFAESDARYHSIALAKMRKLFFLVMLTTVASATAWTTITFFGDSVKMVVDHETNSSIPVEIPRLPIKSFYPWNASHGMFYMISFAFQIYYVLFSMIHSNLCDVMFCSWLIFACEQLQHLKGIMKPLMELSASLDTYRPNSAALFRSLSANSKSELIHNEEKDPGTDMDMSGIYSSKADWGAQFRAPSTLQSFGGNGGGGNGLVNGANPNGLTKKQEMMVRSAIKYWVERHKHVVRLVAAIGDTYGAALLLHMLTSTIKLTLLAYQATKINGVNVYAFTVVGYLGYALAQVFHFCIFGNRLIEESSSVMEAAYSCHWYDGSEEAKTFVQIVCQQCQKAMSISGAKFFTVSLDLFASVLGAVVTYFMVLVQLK
Summary of the method: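 Calcium responses were read on an FDSS6000 (485 nm excitation, 525 nm emission) after Ca-4 loading for 1.5 h at room temperature. Cells were tetracycline-induced Flp-In T-REx lines stably carrying fly Or47a/Or83b or mouse 5HT3, plated 2 days ahead; compounds were co-delivered in HBSS odorant solution.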

[2] = target: OR8/OR7 (Anopheles gambiae, UniProt Q7PUT5+Q7QCC7); test: Ca2+-imaging of stable HEK293T cell line OR8/OR7; details: for inhibition at 4 µM: HEK-293T, compound applied at 4 μM, read-out: Percent Inhibition OR8 OR7; for IC50: Table B, read-out: IC50 OR8
Sequence of OR8/OR7 (Q7QCC7 whole entry): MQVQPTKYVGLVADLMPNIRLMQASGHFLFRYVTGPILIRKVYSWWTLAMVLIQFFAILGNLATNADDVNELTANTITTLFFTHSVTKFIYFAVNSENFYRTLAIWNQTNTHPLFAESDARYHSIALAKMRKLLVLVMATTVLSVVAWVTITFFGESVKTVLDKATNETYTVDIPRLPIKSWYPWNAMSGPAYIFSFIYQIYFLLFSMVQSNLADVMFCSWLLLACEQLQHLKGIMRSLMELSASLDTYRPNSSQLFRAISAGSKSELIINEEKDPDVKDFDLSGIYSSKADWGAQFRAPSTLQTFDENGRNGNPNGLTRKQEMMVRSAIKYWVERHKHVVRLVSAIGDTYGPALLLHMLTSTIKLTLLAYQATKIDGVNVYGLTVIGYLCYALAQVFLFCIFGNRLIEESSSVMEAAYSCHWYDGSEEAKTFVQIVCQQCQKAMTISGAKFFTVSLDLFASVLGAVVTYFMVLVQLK
Sequence of OR8/OR7 (Q7PUT5 entry or part of it): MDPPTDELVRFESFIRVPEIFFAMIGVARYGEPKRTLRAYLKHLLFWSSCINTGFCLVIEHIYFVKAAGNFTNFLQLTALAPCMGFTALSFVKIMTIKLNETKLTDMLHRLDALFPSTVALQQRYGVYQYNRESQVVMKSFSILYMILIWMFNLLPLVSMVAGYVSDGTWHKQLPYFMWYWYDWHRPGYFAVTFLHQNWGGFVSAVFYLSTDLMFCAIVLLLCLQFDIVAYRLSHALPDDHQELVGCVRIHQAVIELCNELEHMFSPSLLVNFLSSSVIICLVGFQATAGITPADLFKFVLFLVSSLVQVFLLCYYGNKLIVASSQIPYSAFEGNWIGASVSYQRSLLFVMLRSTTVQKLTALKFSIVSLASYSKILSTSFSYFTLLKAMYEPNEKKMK
Summary of the method: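 Odorant solutions were prepared in HBSS at 9× final, with test compounds transferred in from […] DMSO stocks. These mixtures were applied to dye-loaded HEK293T stable receptor lines, and calcium responses were recorded in real time.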

[3] = target: OR10/OR7 (Anopheles gambiae, UniProt B5U0U7+Q7QCC7); test: Ca2+-imaging of stable HEK293T cell line OR10/OR7; details: for inhibition at 4 µM: HEK-293T, compound applied at 4 μM, read-out: Percent Inhibition OR10 OR7; for IC50: Table B, read-out: IC50 OR10
Sequence of OR10/OR7 (Q7QCC7 whole entry): as the sequence (Q7QCC7 whole entry) above
Sequence of OR10/OR7 (B5U0U7 entry or part of it): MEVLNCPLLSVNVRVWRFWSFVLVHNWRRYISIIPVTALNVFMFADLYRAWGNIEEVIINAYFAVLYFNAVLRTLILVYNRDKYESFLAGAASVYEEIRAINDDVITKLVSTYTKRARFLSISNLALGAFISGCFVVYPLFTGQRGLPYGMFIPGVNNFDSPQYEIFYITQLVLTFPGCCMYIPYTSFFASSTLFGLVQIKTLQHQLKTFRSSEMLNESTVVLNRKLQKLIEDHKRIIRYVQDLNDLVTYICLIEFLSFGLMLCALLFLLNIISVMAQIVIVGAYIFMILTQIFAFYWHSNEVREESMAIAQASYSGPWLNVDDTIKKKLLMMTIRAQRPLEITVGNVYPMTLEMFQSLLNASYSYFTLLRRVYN
Summary of the method: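 Stable HEK293T line co-expressing OR10/OR7, plated 2 days on poly-D-lysine, loaded with Ca-4 dye 1.5 hr at room temperature. Compounds premixed into odorant in HBSS and applied on FDSS6000. Ca2+ rise followed by fluorescence at 525 nm (excitation 485 nm).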

SMILES	inhibition at 4 µM [1] [%]	inhibition at 4 µM [2] [%]	inhibition at 4 µM [3] [%]	IC50 [3] [nM]	IC50 [1] [nM]	IC50 [2] [nM]
Cc1ccc(CN(CCc2ccccc2)C(=O)CN(C(=O)NC(C)(C)C)C(C)C)o1 [RU-0072008]	26 to 50	< 25	> 75	< 100	–	–
CN(Cc1ccccc1)C(=O)CCC1CCN(C(=O)CCOc2ccccc2)CC1 [RU-0028727]	> 75	–	51 to 74	> 1000	< 100	–
COC(=O)C(Cc1ccccc1)NC(=O)C1CC1(c1ccccc1)c1ccccc1 (centres unmarked) [RU-0028029]	> 75	51 to 74	26 to 50	–	> 1000	> 1000
COCCN(Cc1cc(Cl)ccc1OS(=O)(=O)c1ccc(F)cc1)C(=O)C1CCC1 [RU-0035287]	51 to 74	26 to 50	< 25	–	< 100	–
CC(NC(=O)c1cc2n(n1)CCN(Cc1c(Cl)cccc1Cl)C2=O)c1ccccc1 (centres unmarked) [RU-0045115]	26 to 50	< 25	< 25	–	–	–
COc1nc(NC(C)C)nc(NC(C)C)n1 [RU-0001534]	51 to 74	26 to 50	< 25	–	> 1000	–
O=C1CN(S(=O)(=O)c2c(F)cc(F)cc2F)CC2c3cccc(F)c3CCN12 (centres unmarked) [RU-0076832]	< 25	< 25	26 to 50	–	–	–
COc1ccc(-c2nnc(SCc3ccc(C#N)cc3)n2-c2ccc(C)cc2)cc1 [RU-0046426]	26 to 50	26 to 50	26 to 50	–	–	–
COCCCN(CC(=O)N1CCc2sccc2C1COc1cccc(OC)c1)C(=O)c1ccccc1OC (centres unmarked) [RU-0036294]	51 to 74	51 to 74	51 to 74	> 1000	–	> 1000
CCCCc1nc(CN2CCc3c([nH]c4ccccc34)C2c2cccc(OC)c2OC)c[nH]1 (centres unmarked) [RU-0031879]	51 to 74	26 to 50	< 25	–	> 1000	–
CCOC(=O)C(c1ccc(OC)c(OC)c1)C1C=CC(NC(=O)c2ccc3c(c2)OCO3)C1 (centres unmarked) [RU-0049030]	26 to 50	26 to 50	26 to 50	–	–	–
CCOCCCN(CC(=O)N(Cc1ccc2c(c1)OCO2)Cc1sccc1C)C(=O)NC(C)(C)C [RU-0052340]	26 to 50	< 25	51 to 74	< 100	–	–
CCOc1ccccc1C(=O)NNC(=O)COc1cc(C)cc(C)c1 [RU-0023245]	> 75	–	26 to 50	> 1000	> 1000	–
CCN(CC)C(=O)Oc1ccc2c(ccn2Cc2cccc(C)c2)c1NC(=O)[C@H](C)OC(C)=O [RU-0075468]	< 25	< 25	26 to 50	< 100	–	–
COCCCN(CC(=O)N1CCc2sccc2C1c1ccc(OC)cc1)C(=O)C(C)(C)CCl (centres unmarked) [RU-0069950]	51 to 74	26 to 50	> 75	< 100	> 1000	–
